Literature values in US20050004194A1, “Use of organic compounds” (priority 2003, published 2005).

Assays:
[1] = SAVE trial, patients after MI, captopril versus placebo
[2] = elderly heart failure patients, losartan versus captopril 50 mg t.i.d.

| SMILES | left ventricular remodeling [1] | primary objective: tolerability and increase in serum creatinine [2] | all-cause mortality ([2]; 722 patients, based on only 49 deaths) |
| --- | --- | --- | --- |
| C[C@H](CS)C(=O)N1CCC[C@H]1C(=O)O [captopril] | improvement | – | – |
| CCCCc1nc(Cl)c(CO)n1Cc1ccc(-c2ccccc2-c2nn[nH]n2)cc1 [losartan] | – | no significant differences | statistically significant reduction |
